Source: patent US9149039B2, “Anthranilic diamide/polymer propagule-coating compositions” (E I DU PONT DE NEMOURS AND COMPANY, priority 2011, dated 2015)

System: Spodoptera frugiperda
Assay: Laboratory test of 2nd instar larva of Spodoptera frugiperda on maize leaves (mortality)
Format: in vivo

`CNC(=O)c1cc(Cl)cc(C)c1NC(=O)c1cc(Br)nn1-c1ncccc1Cl` [Compound 2, 3-bromo-N-[4-chloro-2-methyl-6-[(methylamino)carbonyl]phenyl]-1-(3-chloro-2-pyridinyl)-1H-pyrazole-5-carboxamide] was tested, and the “concentration per g of leaf tissue resulting in 50% mortality within 72 h” value (50% mortality within 72 h) was 0.033 micrograms per g of leaf tissu and the “concentration per g of tissue needed to achieve 100% mortality within 72 h” value (100% mortality within 72 h) was 0.037 micrograms per g of tissue.
